According to US20050020550A1, “Selective testicular 11beta-HSD inhibitors and methods of use thereof” (priority 2003, published 2005):

Key:
11β-HSD enzyme activity = assay: Conversion of 3H-corticosterone to 11-dehydrocorticosterone by aortic rings; design: species or system rat; details: 24 hrs, 3H-corticosterone (10 nM) plus antisense (3 μM), compared to nonsense oligomers
Description: The effects of 11β-HSD1 and 11β-HSD2 antisense on the inter-conversion of ^3H-corticosterone and ^3H-11-dehydro-corticosterone by aortic rings was also determined. Rings (2-3 mm) obtained in a similar manner as those in the contraction studies, were incubated in 1 ml DMEM/F12 media containing 1% FBS at 37° C. under 95% O2-5% CO2 in 24-well culture plates. […] The amount of ^3H-11-dehydro-corticqsterone in the incubation medium after 24 hrs was then measured. The effects of 11β-HSD1 antisense/nonsense were measured in quadruplicate (n=6 aortic rings per well) and the effects of 11β-HSD2 antisense/nonsense in duplicate (n=8 aortic rings per well), • (ii) ^3H-11-dehydro-corticosterone (10 nmol/L)±11β-HSD1 antisense (3 μmol/L); this experiment was performed in duplicate (n=10 aortic rings per well). Control groups were incubated with the appropriate nonsense oligomer. ^3H-corticosterone in the incubation medium after 24 hrs was then measured. In this experiment, aortic rings were also analyzed for ^3H-corticosterone content. […]
(§1) Incubation media was collected, ran through a Sep-Pak and eluted with 3 mls of methanol, the eluate was then dried under nitrogen and reconstituted in 500:1 methanol. […] Steroids were observed by monitoring radioactivity on-line with a Packard Radiomatic Flo-One/Beta Series A-500 counter connected to a Dell Optiflex 425 S/L computer. […]

rat aortic rings = assay: Contractile response of rat aortic rings to phenylephrine; details: for contractile response to phenylephrine: rings incubated 24 hours with corticosterone (10 nmol/L) and antisense oligomers (3 μmol/L); for effect of the steroid on contractile responses to phenylephrine: rat aortic rings incubated with the steroid, compared to controls
Description: Male Sprague-Dawley (150-200 g) rats were anesthetized with pentobarbital (50 mg/kg IP), and a median sternotomy was performed followed by the rapid removal of the thoracic aorta. The adventitia was removed, but the endothelium was left intact. The aorta was cut into 2-3 mm rings and individual rings were placed into a single well of a twenty four well culture plate and incubated at 37° C. under 95% O2-5% CO2. Each well contained 1 mL of DMEM/F12 containing 1% fetal bovine serum, streptomycin (100 μg/ml), penicillin (100 units/ml) and amphotericin (0.25 μg/ml). Aortic rings were incubated for 24 hours prior to contractility measurements with the following combinations of steroids, and antisense/nonsense oligonucleotides (3 μmol/L): • Corticosterone (10 nmol/L)+11β-HSD2 antisense or 11β-HSD2 nonsense oligomer • Corticosterone (10 nmol/L)+11β-HSD1 antisense or 11β-HSD1 nonsense oligomer • In 11-dehydrocorticosterone experiments with vehicle alone • 11-dehydrocorticosterone (100 nmol/L)+11β-HSD1 Antisense or 11β-HSD1 nonsense oligomer
Antisense phosphorothioate oligonucleotides, targeted to block either 11β-HSD2 or 11β-HSD1 gene expression, were obtained from Research Genetics, Huntsville Ala. Antisense oligomers complementary to 20 bp sequences spanning the ribosome binding/translation start site were used. Oligomer sequences were: 5′-CATAACTGCCGTCCAACAGC-3′ (SEQ ID No.: 2) for 11β-HSD1 Antisense and 5′-AGCCCAGCGCTCCATGACTT-3′ (SEQ ID No. 3) for 11β-HSD2 antisense. In control experiments the corresponding sense sequence was used as the nonsense oligomer. Antisense and nonsense oligomers were added directly to each well at 20 μg/10:1 sterile H2O per well for a final concentration of 3 μmol/L.
For contraction measurements, aortic rings were suspended by tungsten wires with 1 g of tension and placed in a vessel bath containing serum free DMEM/F 12 media at 37° C. aerated with 95% O2-5% CO2, at pH 7.4. Vessels were equilibrated for 20 minutes and then tested with phenylephrine (1 nmol/L−10 μmol/L). Although phenylephrine is structurally not a catecholamine, it is considered to be a functional catecholamine as it activates […]. Due to its favorable stability characteristics, it is widely used as a catecholamine substitute in experiments of this nature. The intensity of contraction was assessed by use of a Narishige micromanipulator and model FT03 force transducer (Grass Instrument Co. West Warwick, R.I.). Measurements were recorded on computer using the Labview 4.1 Virtual Instrument System (National Instruments, Austin, Tex.).

[1] = test system: 11β-HSD1-reductase activity; assay: Conversion of 3H-11-dehydrocorticosterone back to corticosterone by aortic rings; design: species or system rat
Description: The effects of 11β-HSD1 and 11β-HSD2 antisense on the inter-conversion of ^3H-corticosterone and ^3H-11-dehydro-corticosterone by aortic rings was also determined. Rings (2-3 mm) obtained in a similar manner as those in the contraction studies, were incubated in 1 ml DMEM/F12 media containing 1% FBS at 37° C. under 95% O2-5% CO2 in 24-well culture plates. Rings were incubated for 24 hours with: • (i) ^3H-corticosterone ([…])±11β-HSD2 or 11β-HSD1 antisense (3 μmol/L); control groups received nonsense oligomers. The amount of ^3H-11-dehydro-corticqsterone in the incubation medium after 24 hrs was then measured. The effects of 11β-HSD1 antisense/nonsense were measured in quadruplicate (n=6 aortic rings per well) and the effects of 11β-HSD2 antisense/nonsense in duplicate (n=8 aortic rings per well), • (ii) ^3H-11-dehydro-corticosterone (10 nmol/L)±11β-HSD1 antisense (3 μmol/L); this experiment was performed in duplicate (n=10 aortic rings per well). Control groups were incubated with the appropriate nonsense oligomer. ^3H-corticosterone in the incubation medium after 24 hrs was then measured. In this experiment, aortic rings were also analyzed for ^3H-corticosterone content. Rings from duplicate incubations (total n=20) were blotted dry, pooled and homogenized in 50% methanol using a Polytron. The homogenates were then centrifuged, extracted as below using Sep-Paks and injected onto a HPLC system for analysis.
as §1
Corticosterone and phenylephrine were obtained from Sigma (St Louis, Mo.), 11-dehydrocorticosterone from Research Plus (Bayonne, N.J.) and ^3H-steroids from New England Nuclear (Boston, Mass.). Where appropriate, data were expressed as mean±SE and analyzed using ANOVA and the Student's t test with Bonferroni modification. […]

11β-HSD1 Dehydrogenase = target: T1, 11β-HSD1 Dehydrogenase (Rattus norvegicus, UniProt P16232); assay: Inhibition of 11β-HSD1 dehydrogenase (Table 1); assay type: cell-based
T1 construct: an enzyme present in testicular Leydig cells; endogenous in cells; host or cells: freshly prepared rat Leydig cells
T1 sequence (P16232 whole entry): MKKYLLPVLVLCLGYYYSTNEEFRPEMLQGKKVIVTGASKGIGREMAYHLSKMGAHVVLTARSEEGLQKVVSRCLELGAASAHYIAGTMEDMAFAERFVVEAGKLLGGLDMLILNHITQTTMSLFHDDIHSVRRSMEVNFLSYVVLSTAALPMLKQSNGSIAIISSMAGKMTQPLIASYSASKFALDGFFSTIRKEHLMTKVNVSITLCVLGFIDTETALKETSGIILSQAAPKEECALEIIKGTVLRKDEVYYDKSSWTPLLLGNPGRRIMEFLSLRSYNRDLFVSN

11β-HSD1 Reductase = target: T2, 11β-HSD1 Reductase (Rattus norvegicus, UniProt P16232); assay: Inhibition of 11β-HSD1 reductase (Table 1); assay type: cell-based
T2 construct: an enzyme present in testicular Leydig cells; endogenous in cells; host or cells: freshly prepared rat Leydig cells
T2 sequence (P16232 whole entry): as above

11β-HSD2 Dehydrogenase = target: T3, 11β-HSD2 Dehydrogenase (Homo sapiens, UniProt P80365); assay: Inhibition of 11β-HSD2 dehydrogenase (Table 1); assay type: biochemical
T3 sequence (P80365 1-405): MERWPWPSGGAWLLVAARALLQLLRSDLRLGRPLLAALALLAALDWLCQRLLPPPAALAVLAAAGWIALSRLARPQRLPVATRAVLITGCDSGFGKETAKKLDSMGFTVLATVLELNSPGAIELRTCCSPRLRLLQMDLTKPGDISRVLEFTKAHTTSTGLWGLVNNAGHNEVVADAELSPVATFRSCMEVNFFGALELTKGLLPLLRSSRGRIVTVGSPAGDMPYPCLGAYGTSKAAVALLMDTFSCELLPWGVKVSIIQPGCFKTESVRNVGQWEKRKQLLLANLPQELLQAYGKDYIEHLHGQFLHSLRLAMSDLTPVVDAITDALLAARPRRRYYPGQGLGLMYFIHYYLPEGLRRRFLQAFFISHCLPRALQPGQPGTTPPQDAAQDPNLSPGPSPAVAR

[2] = with the 11β-HSD1-reductase inhibitor steroid

Compound | 11β-HSD1 Dehydrogenase (inhibition) (11β-HSD1 Dehydrogenase) | 11β-HSD1 Reductase (inhibition) (11β-HSD1 Reductase) | 11β-HSD2 Dehydrogenase (inhibition) (11β-HSD2 Dehydrogenase) | further results
11β-HSD1 antisense: Antisense phosphorothioate oligonucleotide blocking 11β-HSD1 gene expression, 5′-CATAACTGCCGTCCAACAGC-3′ (antisense CATAACTGCCGTCCAACAGC; all phosphorothioate, sugars by position and methylation of C not given here; listed as Homo sapiens) | – | – | – | reduction in the conversion of corticosterone to 11-dehydrocorticosterone (11β-HSD enzyme activity): 21%; ability of 11-dehydro-corticosterone to amplify the contractile response to phenylephrine (rat aortic rings; rings incubated 24 hours with 11-dehydro-corticosterone (100 nmol/L) and antisense (3 μmol/L), compared to nonsense oligomers): attenuated; contractile response to phenylephrine (rat aortic rings; compared to nonsense oligomers): significantly increased; production of 3H-corticosterone from 3H-11-dehydrocorticosterone ([1]; incubation medium, 24 hours, antisense compared to nonsense oligomers): markedly reduced; production of 3H-corticosterone in aortic ring tissue ([1]; pooled aortic ring tissue (n=20), antisense compared to nonsense oligomers): markedly lower
11β-HSD2 antisense: Antisense phosphorothioate oligonucleotide blocking 11β-HSD2 gene expression, 5′-AGCCCAGCGCTCCATGACTT-3′ (antisense AGCCCAGCGCTCCATGACTT; all phosphorothioate, sugars by position and methylation of C not given here; listed as Homo sapiens) | – | – | – | reduction in the conversion of corticosterone to 11-dehydrocorticosterone (11β-HSD enzyme activity): 24%; contractile response to phenylephrine (rat aortic rings; compared to nonsense oligomers): statistically significant increase
C[C@]12CC[C@H](O)C[C@H]1CC[C@@H]1[C@H]2[C@@H](O)C[C@@]2(C)[C@@H]1CC[C@@H]2O [3α,5β-reduced- 11β-OH—testosterone] | Moderate Inhibitor | No Inhibition | No Inhibition | –
C[C@]12CCC(=O)C[C@@H]1CC[C@@H]1[C@@H]2[C@@H](O)C[C@]2(C)[C@@H](C(=O)CO)CC[C@@H]12 [5α-dihydro- corticosterone] | Potent Inhibitor | No inhibition | Potent Inhibitor | –
CC(=O)[C@H]1CC[C@@H]2[C@@H]3CCC4=CC(=O)CC[C@]4(C)[C@@H]3C(=O)C[C@]12C [11-Keto-progesterone] | No Inhibition | Selective Inhibitor | Potent Inhibitor | ability of 11-dehydro-corticosterone to amplify the contractile effects of phenylephrine (rat aortic rings; [2]): diminished; metabolism of 11-dehydro-corticosterone back to corticosterone [1, 2]: decreased
C[C@]12CC(=O)[C@@H]3[C@@H](CCC4=CC(=O)CC[C@@]43C)[C@H]1CC[C@@H]2O [11-Keto-testosterone] | No Inhibition | Selective Inhibitor | No Inhibition | –
C[C@]12CC(=O)[C@H]3[C@@H](CCC4=CC(=O)CC[C@@]43C)[C@@H]1CC[C@@H]2C(=O)CO [11-dehydro-corticosterone, reference compound] | – | – | – | effect of the steroid on contractile responses to phenylephrine (rat aortic rings): amplifies the contractile responses
C[C@]12C[C@H](O)[C@@H]3[C@@H](CCC4=CC(=O)CC[C@@]43C)[C@H]1CC[C@@H]2O [11β-OH—testosterone] | Inhibitor (Non-Selective) | No Inhibition | Inhibitor (Non-Selective) | –
C[C@H](CCC(=O)O)[C@H]1CC[C@H]2[C@@H]3[C@H](O)C[C@@H]4C[C@H](O)CC[C@]4(C)[C@H]3CC[C@]12C [chenodeoxycholic acid] | Selective inhibitor | No Inhibition | No Inhibition | –
C[C@]12C[C@H](O)[C@H]3[C@@H](CCC4=CC(=O)CC[C@@]43C)[C@@H]1CC[C@@H]2C(=O)CO [corticosterone, reference compound] | – | – | – | effect of the steroid on contractile responses to phenylephrine (rat aortic rings): amplified contractile responses
